Laboratory results published in paper PMC10368641, “Expulsion mechanism of the substrate-translocating subunit in ECF transporters” (Nature Communications, 2023).

Experiments:
ECF-FolT2 [1] = molecular target: T1, ECF-FolT2 (Lactobacillus delbrueckii, UniProt Q1G929+Q1GBI9+Q1GBJ0); experiment: cryo-EM structure, […] Å; format: binding; details: 5 mM Mg-AMP-PNP, 10 µM folate, 37 °C; both nucleotide sites; lipid nanodiscs
T1 construct: gene ecfA1; full complex EcfA-EcfA'-EcfT-FolT2, ~115 kDa; N-terminal His10-TEV tag, C-terminal StrepII tag on FolT2; expressed in E. coli MC1061; MSP2N2 lipid nanodiscs; with Energy-coupling factor transporter transmembrane protein EcfT

[2] = molecular target: T2, solitary ECF module co-reconstituted with solitary FolT1 (Lactobacillus delbrueckii, UniProt Q1G930); experiment: radiolabelled folate uptake into proteoliposomes; format: biochemical; details: 100 nM folate, 5 mM lumenal Mg-ATP, 50 mM KPi pH 7.5, 30 °C; labelled compound
T2 construct: gene Ldb1624; FolT1 with N-terminal His8 tag from L. lactis NZ9000; ECF module from E. coli, tag removed by TEV; co-reconstituted into proteoliposomes; Energy-coupling factor transporter transmembrane protein EcfT

ECF-FolT2 [3] = molecular target: T1, ECF-FolT2; experiment: cryo-EM structure, […] Å; format: binding; details: lipid nanodiscs
solitary ECF module = molecular target: T3, solitary ECF module (Lactobacillus delbrueckii, UniProt Q1GBI9+Q1GBJ0); experiment: cryo-EM structure, […] Å; format: binding; details: Mg-ATP in both nucleotide sites, closed ATPase dimer; lipid nanodiscs; catalytically inactive double mutant 2EQcryo
T3 construct: gene ecfA1; EcfA-EcfA'-EcfT without S-component, ~92 kDa; N-terminal His10-TEV tag removed; expressed in E. coli MC1061; MSP2N2 lipid nanodiscs; with Energy-coupling factor transporter transmembrane protein EcfT

[4] = substrate: Nc1ncnc2c1ncn2[C@@H]1O[C@H](COP(=O)(O)OP(=O)(O)OP(=O)(O)O)[C@@H](O)[C@H]1O; experiment: enzyme-coupled (PK/LDH) spectrophotometric ATPase assay; format: biochemical, Lactobacillus delbrueckii; details: Mg-ATP 0-0.5 mM, 20 mM Tris pH 8.0, 150 mM NaCl, 37 °C, lipid nanodiscs

T1 sequence (Q1GBI8 entry or part of it, one chain of several, further chain): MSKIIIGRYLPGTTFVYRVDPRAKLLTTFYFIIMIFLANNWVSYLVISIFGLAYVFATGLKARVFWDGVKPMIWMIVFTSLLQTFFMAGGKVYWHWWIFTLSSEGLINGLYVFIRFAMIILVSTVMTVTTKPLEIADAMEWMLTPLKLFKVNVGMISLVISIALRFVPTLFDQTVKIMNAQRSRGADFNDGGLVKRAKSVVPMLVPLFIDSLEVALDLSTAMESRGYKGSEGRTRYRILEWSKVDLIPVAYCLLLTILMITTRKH
T1 sequence (Q1G929 entry or part of it, one chain of several): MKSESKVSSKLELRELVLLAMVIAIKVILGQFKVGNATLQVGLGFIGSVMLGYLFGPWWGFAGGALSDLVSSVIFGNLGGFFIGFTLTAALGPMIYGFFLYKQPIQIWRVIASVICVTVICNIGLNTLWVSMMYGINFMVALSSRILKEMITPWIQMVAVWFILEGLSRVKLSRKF
T2 sequence (Q1GBI8 entry or part of it, one chain of several): as the sequence (Q1GBI8 entry or part of it, one chain of several, further chain) above
T2 sequence (Q1GBJ0 whole entry, one chain of several, further chain): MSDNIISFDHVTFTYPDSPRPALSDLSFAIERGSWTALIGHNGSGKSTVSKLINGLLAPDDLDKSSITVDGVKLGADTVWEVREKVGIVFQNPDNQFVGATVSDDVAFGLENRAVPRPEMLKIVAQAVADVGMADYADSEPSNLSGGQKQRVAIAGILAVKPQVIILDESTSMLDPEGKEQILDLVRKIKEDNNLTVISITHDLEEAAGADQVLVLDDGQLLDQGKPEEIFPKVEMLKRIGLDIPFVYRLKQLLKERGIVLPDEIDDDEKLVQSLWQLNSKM
T2 sequence (Q1G930 entry or part of it, one chain of several): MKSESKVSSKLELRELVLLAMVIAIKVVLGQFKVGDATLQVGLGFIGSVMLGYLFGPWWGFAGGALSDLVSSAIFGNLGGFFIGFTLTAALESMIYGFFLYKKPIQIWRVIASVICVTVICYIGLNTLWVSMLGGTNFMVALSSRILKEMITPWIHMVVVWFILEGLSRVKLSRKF
T3 sequence (Q1GBI8 entry or part of it, one chain of several, further chain): as the sequence (Q1GBI8 entry or part of it, one chain of several, further chain) above

Nc1ncnc2c1ncn2[C@@H]1O[C@H](COP(=O)(O)OP(=O)(O)NP(=O)(O)O)[C@@H](O)[C@H]1O [AMP-PNP]
cryo-EM structure, 3.6 Å (ECF-FolT2 [1]): with AMP-PNP bound to both nucleotide-binding sites

Nc1nc2ncc(CNc3ccc(C(=O)N[C@@H](CCC(=O)O)C(=O)O)cc3)nc2c(=O)[nH]1 [folate]
radiolabelled folate uptake into proteoliposomes [2]: Uptake of folate into the proteoliposome lumen only occurred in the presence of lumenal Mg-ATP

Nc1ncnc2c1ncn2[C@@H]1O[C@H](COP(=O)(O)OP(=O)(O)OP(=O)(O)O)[C@@H](O)[C@H]1O [ATP]
cryo-EM structure, 3.2 Å (ECF-FolT2 [3]; 5 mM Mg-ATP, 10 µM folate, 37 °C, site in EcfA, adenine between EcfA Phe13 and FolT2 Arg174): ATP and ADP bound to the EcfA and EcfA’ subunits, respectively | cryo-EM structure, 2.6 Å (solitary ECF module): In both ATPase subunits, Mg-ATP is now bound and engaged with the signature motif

Nc1ncnc2c1ncn2[C@@H]1O[C@H](COP(=O)(O)OP(=O)(O)O)[C@@H](O)[C@H]1O [ADP]
cryo-EM structure, 3.2 Å (ECF-FolT2 [3]; 5 mM Mg-ATP added, site in EcfA'): ADP is bound exclusively by residues from the EcfA’ subunit

B1: solitary ECF module (Lactobacillus delbrueckii subsp. bulgaricus ATCC 11842 = JCM 1002) (protein)
chain 1: SDNIISFDHVTFTYPDSPRPALSDLSFAIERGSWTALIGHNGSGKSTVSKLINGLLAPDDLDKSSITVDGVKLGADTVWEVREKVGIVFQNPDNQFVGATVSDDVAFGLENRAVPRPEMLKIVAQAVADVGMADYADSEPSNLSGGQKQRVAIAGILAVKPQVIILDESTSMLDPEGKEQILDLVRKIKEDNNLTVISITHDLEEAAGADQVLVLDDGQLLDQGKPEEIFPKVEMLKRIGLDIPFVYRLKQLLKERGIVLPDEIDDDEKLVQSLWQLNSKM
chain 2: MAIKFENVSYVYSPGSPLEAIGLDQLNFSLEEGKFIALVGHTGSGKSTLMQHFNALLKPTSGKIEIAGYTITPETGNKGLKDLRRKVSLAFQFSEAQLFENTVLKDVEYGPRNFGFSEDEAREAALKWLKKVGLKDDLIEHSPFDLSGGQMRRVALAGVLAYEPEIICLDEPAAGLDPMGRLEMMQLFKDYQAAGHTVILVTHNMDDVADYADDVLALEHGRLIKHASPKEVFKDSEWLQKHHLAEPRSARFAAKLEAAGLKLPGQPLTMPELADAIKQSLKGGEHE
notes: EcfA-EcfA'-EcfT without S-component, ~92 kDa; N-terminal His10-TEV tag removed; expressed in E. coli MC1061; MSP2N2 lipid nanodiscs; with Energy-coupling factor transporter transmembrane protein EcfT
Km [4]: 136.2 µM
